Assay: recombinant barcode read abundance after kanamycin selection (control-corrected) (log10(CPM+1)); higher = more efficient recombination; sequences stand for … in AGTGCAGAGAAAATCGGCCAGTTTTCTCTGCCTGCAGTCCGCATGCCGT…AGATTTATGCAGCGGACTGCCTTTCTCCCAAAGTGATAAACCGGACAGTATCATGGACCGGTTTTCCCGGTAATCCGTATTTGCAAGGTTGGTTTCACT; site = the 11-nt target
How it was run: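 Values are log10(CPM+1) from a pooled E. coli screen of targets paired with IS621 bridge RNA target-binding loops. Recombination efficiency here means counts per million of recombinant-junction barcodes, averaged and control-corrected. Plates were chloramphenicol/ampicillin LB agar for the control and chloramphenicol/ampicillin/kanamycin with 0.1 mM IPTG, two replicates each.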
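Further: IS621 recombinase and bridge RNA in Escherichia coli cells.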

In order of falling “recombinant barcode read abundance (log10)” value:
1. GAGGGGTCTTGGGTTCTAACCTGTTGCAC (site GAGGGGTCTGT)  2.81
2. GAGGGCCCTTGGGTTCTAACCTGTTGCTG (site GAGGGCCCTCA)  2.8
3. GAGGGTCCTTGGGTTCTAACCTGTTGCAT (site GAGGGTCCTAT)  2.74
4. GAGGGCTCTTGGGTTCTAACCTGTTGCGG (site GAGGGCTCTCC)  2.73
5. GAGTTACCTTGGGTTCTAACCTGTTGCGT (site GAGTTACCTAC)  2.6
6. GAGCTAGCTTGGGTTCTAACCTGTTGCGT (site GAGCTAGCTAC)  2.41
7. GAGGACTCTTGGGTTCTAACCTGTTGCCG (site GAGGACTCTAG)  2.41
8. GAGGACTCTTGGGTTCTAACCTGTTGCCG (site GAGGACTCTCG)  2.32
9. GAGTAGTCTTGGGTTCTAACCTGTTGCTT (site GAGTAGTCTAA)  2.05
10. GAGGGCCCTTGGGTTCTAACCTGTTGCTG (site GAGGGCCCTCG)  2.03
11. GAGTGGCCTTGGGTTCTAACCTGTTGCGG (site GAGTGGCCTCC)  1.84
12. GAGTACTCTTGGGTTCTAACCTGTTGCTA (site GAGTACTCTTA)  1.8
13. GAGCTACCTTGGGTTCTAACCTGTTGCCC (site GAGCTACCTGG)  1.72
14. GAGGTAACTTGGGTTCTAACCTGTTGCAC (site GAGGTAACTGT)  1.66
15. GAGGGTCCTTGGGTTCTAACCTGTTGCAT (site GAGGGTCCTAG)  1.65
16. GAGCATACTTGGGTTCTAACCTGTTGCCT (site GAGCATACTAG)  1.62
17. GAGGGCCCTTGGGTTCTAACCTGTTGCTG (site GAGGGCCCTCT)  1.56
18. GAGTGGCCTTGGGTTCTAACCTGTTGCTT (site GAGTGGCCTAA)  1.54
19. GAGCGAGCTTGGGTTCTAACCTGTTGCTG (site GAGCGAGCTCA)  1.5
20. GAGCCACCTTGGGTTCTAACCTGTTGCCT (site GAGCCACCTAG)  1.48
21. GAGCTACCTTGGGTTCTAACCTGTTGCCC (site GAGCTACCTAG)  1.48
22. GAGCGTTCTTGGGTTCTAACCTGTTGCCT (site GAGCGTTCTAG)  1.47
23. GAGTCGTCTTGGGTTCTAACCTGTTGCTT (site GAGTCGTCTAA)  1.45
24. GAGCGCTCTTGGGTTCTAACCTGTTGCAG (site GAGCGCTCTCT)  1.42
25. GAGCCGGCTTGGGTTCTAACCTGTTGCTT (site GAGCCGGCTAA)  1.32
26. GAGCGTCCTTGGGTTCTAACCTGTTGCAG (site GAGCGTCCTCT)  1.26
27. GAGGCTACTTGGGTTCTAACCTGTTGCAT (site GAGGCTACTAT)  1.26
28. GAGGCTCCTTGGGTTCTAACCTGTTGCCC (site GAGGCTCCTGG)  1.26
29. GAGCGAGCTTGGGTTCTAACCTGTTGCTG (site GAGCGAGCTCT)  1.25
30. GAGGTAACTTGGGTTCTAACCTGTTGCCT (site GACGTAACTAG)  1.23
31. GAGCGAGCTTGGGTTCTAACCTGTTGCGG (site GAGCGAGCTCC)  1.13
32. GAGCGAGCTTGGGTTCTAACCTGTTGCGG (site GAGCGAGCTCT)  1.07
33. GAGTAGTCTTGGGTTCTAACCTGTTGCTT (site GAGTAGACTAA)  0.941
34. GAGGGCACTTGGGTTCTAACCTGTTGCCA (site GAGGGCACTTG)  0.917
35. GAGCCACCTTGGGTTCTAACCTGTTGCCT (site TAGCCACCTAG)  0.911
36. GAGTGGCCTTGGGTTCTAACCTGTTGCAT (site GAGTGGCCTAT)  0.883
37. GAGCCACCTTGGGTTCTAACCTGTTGCCT (site AAGCCACCTAG)  0.868
38. GAGCTACCTTGGGTTCTAACCTGTTGCCC (site GAGCTACCTTG)  0.85
39. GAGTGAACTTGGGTTCTAACCTGTTGCCA (site GAGTGAACTTG)  0.849
40. GAGTGGCCTTGGGTTCTAACCTGTTGCGG (site GAGTAGCCTCC)  0.831
41. GAGGTAACTTGGGTTCTAACCTGTTGCCT (site GATGTAACTAG)  0.822
42. GAGGGCCCTTGGGTTCTAACCTGTTGCTG (site GAGGGCCCTCC)  0.808
43. GAGTGCCCTTGGGTTCTAACCTGTTGCTT (site GAGTGCCCTAA)  0.78
44. GAGCGTCCTTGGGTTCTAACCTGTTGCCG (site GAGCGTCCTCG)  0.739
45. GAGGGTCCTTGGGTTCTAACCTGTTGCAT (site GAGGGTCCTAA)  0.573
46. GAGGGTCCTTGGGTTCTAACCTGTTGCAT (site GAGGGTCCTAC)  0.542
47. GAGTGGCCTTGGGTTCTAACCTGTTGCTT (site GAGTGGCCTAT)  0.541
48. GAGCGAGCTTGGGTTCTAACCTGTTGCTG (site GAGCGAGCTCG)  0.529
49. GAGTGGCCTTGGGTTCTAACCTGTTGCTT (site GAGTGGCCTAC)  0.494
50. GAGGACTCTTGGGTTCTAACCTGTTGCCG (site GAGGACTCTTG)  0.476
51. GAGGACTCTTGGGTTCTAACCTGTTGCCG (site GAGGACTCTGG)  0.458
52. GAGTGAACTTGGGTTCTAACCTGTTGCCA (site GTGTGTACTTG)  0.435
53. GAGCGAGCTTGGGTTCTAACCTGTTGCTG (site GAGCGAGCTCC)  0.41
54. GAGTCGTCTTGGGTTCTAACCTGTTGCTT (site GAGCCATCTAA)  0.402
55. GAGTGGCCTTGGGTTCTAACCTGTTGCAT (site GAGTGGCCTAC)  0.385
56. GAGGCTCCTTGGGTTCTAACCTGTTGCCC (site GAGGCTCCTAG)  0.372
57. GAGCCGGCTTGGGTTCTAACCTGTTGCTT (site GAGTCGGCTAA)  0.337
58. GAGTGGCCTTGGGTTCTAACCTGTTGCAT (site GAGTGGCCTAG)  0.318
59. GAGCCGGCTTGGGTTCTAACCTGTTGCTT (site GAGGCGGCTAA)  0.3
60. GAGTGGCCTTGGGTTCTAACCTGTTGCAT (site GAGTGGCCTAA)  0.242
61. GAGCCACCTTGGGTTCTAACCTGTTGCCT (site CAGCCACCTAG)  0.236
62. GAGCGTTCTTGGGTTCTAACCTGTTGCCT (site GAGCGCTCTCG)  0.199
63. GAGCTACCTTGGGTTCTAACCTGTTGCCC (site GAGCTACCTCG)  0.199
64. GAGCGAGCTTGGGTTCTAACCTGTTGCGG (site GAGCGAGCTCG)  0.196
65. GAGTTACCTTGGGTTCTAACCTGTTGCGT (site GAGTTCCCTAC)  0.192
66. GAGGCTCCTTGGGTTCTAACCTGTTGCCC (site GAGGCTCCTCG)  0.174
67. GAGCTAGCTTGGGTTCTAACCTGTTGCGT (site GAGCTAGCTGC)  0.155
68. GAGTGCCCTTGGGTTCTAACCTGTTGCTT (site GTGTGGCCTAA)  0.128
69. GAGGGGTCTTGGGTTCTAACCTGTTGCAC (site CAGGCGTCTGT)  0.122
70. GAGGCTCCTTGGGTTCTAACCTGTTGCCC (site GAGGCTCCTTG)  0.104
71. GAGCGTCCTTGGGTTCTAACCTGTTGCCG (site CAGTGTCCTCG)  0.0924
72. GAGGGCTCTTGGGTTCTAACCTGTTGCGG (site AGTTCACCTTA)  0.0921
73. GAGGGCACTTGGGTTCTAACCTGTTGCCA (site GAGAGCACTTG)  0.074
74. GAGCGCTCTTGGGTTCTAACCTGTTGCAG (site GAGTGCTCTCT)  0.0694
75. GAGTGGCCTTGGGTTCTAACCTGTTGCTT (site GAGTGGCCTAG)  0.068
76. GAGGTAACTTGGGTTCTAACCTGTTGCCT (site GAAGTAACTAG)  0.0669
77. GAGCCGGCTTGGGTTCTAACCTGTTGCTT (site GAGACGGCTAA)  0.0584
78. GAGGTAACTTGGGTTCTAACCTGTTGCCT (site GAGGTAACTAG)  0.0487
79. GAGTGGCCTTGGGTTCTAACCTGTTGCGG (site GAGTCGCCTCC)  0.0473
80. GAGGTAACTTGGGTTCTAACCTGTTGCAC (site TGTACGCCTAG)  0.0446
81. GAGCATACTTGGGTTCTAACCTGTTGCCT (site GAGGGTACTAG)  0.0325
82. GAGCGTCCTTGGGTTCTAACCTGTTGCAG (site GAGTTTCCTCT)  0.0296
83. GAGGCTACTTGGGTTCTAACCTGTTGCAT (site ACAAGGGCTCA)  0.0274
84. GAGCGAGCTTGGGTTCTAACCTGTTGCGG (site GAGCGAGCTCA)  0.0195
85. GAGTACTCTTGGGTTCTAACCTGTTGCTA (site GAGTCTTCTTA)  0.00735
86. GAGTGGCCTTGGGTTCTAACCTGTTGCGG (site GAGTTGCCTCC)  0.00446

— the supplement of paper PMC11208160
